Assays:
[1] = Highest frequency of moderate liver toxicity observed during clinical trials, expressed as a percentage. [column '% BIOL' in source]; conditions: human
[2] = human
[3] = human; remark: listed apart in the source
[4] = human; remark: listed apart in the source
[5] = human; remark: listed apart in the source
[6] = human, serum, 4383 h
[7] = human; remark: listed apart in the source
[8] = Highest frequency of acute liver toxicity observed during clinical trials, expressed as a percentage. [column '% AIGUE' in source]; conditions: human
[9] = human; remark: listed apart in the source
[10] = human, serum
[11] = human; remark: listed apart in the source
[12] = human; remark: listed apart in the source
[13] = human; remark: listed apart in the source
[14] = human, serum; remark: listed apart in the source
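Throughout, for Hepatotoxicity (association with vascular disease): count of indexed literature references reporting vascular liver injury in humans, e.g. peliosis hepatitis, hepatic veno-occlusive disease or Budd-Chiari syndrome.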
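Throughout, for Hepatotoxicity (benign tumour): value is a count of indexed literature references citing a benign tumour confirmed by histopathology.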
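Throughout, for Hepatotoxicity (choleostasis): human cholestatic liver injury, shown by histopathology or by peak ALT or AST elevation over alkaline phosphatase ratio below 2, value counts indexed literature reports.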
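Throughout, for Hepatotoxicity (chronic liver disease): chronic liver injury confirmed by histopathology or persistently raised serum aminotransferase activity beyond 6 months, value given as the count of indexed literature references.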
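Throughout, for Hepatotoxicity (cirrhosis): value is a count of indexed literature references reporting cirrhosis confirmed by histopathology.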
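Throughout, for Hepatotoxicity (cytolytic): human cytolytic liver injury, shown by histopathology or by a ratio above 5 of peak ALT or AST elevation to alkaline phosphatase elevation, value counts indexed references.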
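Throughout, for Hepatotoxicity (granulomatous hepatitis): value is a count of indexed literature references reporting granulomatous liver disease confirmed by histopathology.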
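Throughout, for Hepatotoxicity (malignant tumour): malignant tumour confirmed by histopathology, value gives the count of indexed literature references reporting it.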
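Throughout, for Hepatotoxicity (severe hepatitis): human clinical data: severe hepatitis, meaning potentially life-threatening liver failure or clinically observed cases, the value counts how many indexed literature references report it.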
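Throughout, for Hepatotoxicity (steatosis): steatosis confirmed by histopathology, value is the count of indexed references.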

SMILES	Hepatotoxicity (moderate) [1] [%]	Hepatotoxicity (severe hepatitis) [2]	Hepatotoxicity (benign tumour) [3]	Hepatotoxicity (cytolytic) [4]	Hepatotoxicity (steatosis) [5]	Hepatotoxicity (chronic liver disease) [6]	Hepatotoxicity (malignant tumour) [7]	Hepatotoxicity (acute) [8] [%]	Hepatotoxicity (choleostasis) [9]	Hepatotoxicity (moderate) [10]	Hepatotoxicity (association with vascular disease) [11]	Hepatotoxicity (cirrhosis) [12]	Hepatotoxicity (granulomatous hepatitis) [13]	Hepatotoxicity (acute) [14]
C[C@H]([C@](O)(Cn1cncn1)c1ccc(F)cc1F)S(C)(=O)=O [GENACONAZOLE]	33.3	0	0	0	0	0	0	0	0	1	0	0	0	0
C[C@@H](O)[C@H]1C(=O)N2C(C(=O)O)=C([C@H]3CCCO3)S[C@H]12 [FAROPENEM]	20	0	0	0	0	0	0	0	0	39	0	0	0	0
CC(=O)c1ccc2c(c1)N(CCCN1CCC(CCO)CC1)c1ccccc1S2 [PIPERACETAZINE]	39	0	0	0	0	0	0	0	0	1	0	0	0	0
CCNNC(=O)[C@@H]1[C@H](c2cc(OC)c(OC)c(OC)c2)c2cc3c(cc2[C@H](O)[C@H]1CO)OCO3 [MITOPODOZIDE]	1.3	0	0	0	0	0	0	0	0	1	0	0	0	0
Cc1cc(C(=O)NCCc2ccc(S(=O)(=O)NC(=O)NN3CCCCCC3)cc2)no1 [GLISOXEPIDE]	0	0	0	0	0	0	0	0	0	1	0	0	0	0
CCC(Cc1cnc2nc(N)nc(N)c2n1)c1ccc(C(=O)N[C@@H](CCC(=O)O)C(=O)O)cc1 (some centres not stated) [EDATREXATE]	30	0	0	2	0	0	0	3.2	0	8	0	0	0	2
Cc1ncc(-c2csc(N=C(N)N)n2)[nH]1 [ZALTIDINE]	94	0	0	1	0	0	0	8	0	1	0	0	0	1
CO[C@H]1Cc2c(O)cc(O)cc2O[C@@H]1c1ccc(O)c(O)c1 [MECIADANOL]	34.8	0	0	0	0	0	0	0	0	1	0	0	0	0

From ChEMBL document CHEMBL3137667, “[Drug-induced liver injury; fourteenth updated edition of the bibliographic database of liver injuries and related drugs]” (Gastroenterol Clin Biol, 2004)
